The record followed here is US4444776A, “Dipyrido (4,3-B) (3,4-F) indoles, process for obtaining them, therapeutical use and pharmaceutical compositions” (priority 1977, dated 1984).

Molecules are shown by their SMILES.

For series [1], the system named is L 1210 leukemia. Put plainly: Test 10: comparison of antitumoral activity with known products, L 1210 (Tables V-VII). The format is in vivo, mouse. As to conditions: J+3. How it is done:
Test 10: Comparison of the antitumoral activity of the compound according to example 7 with that of known products
The compound of example 7, i.e. 1-(γ-diethylaminopropyl)amino-5-methyl-dipyrido-[4,3-b][3,4-f] indole or known compounds were injected into L 1210 leukemic mice 1 or 3 days after the inoculation of the cells at the doses indicated in tables V to VII and the mean survival time (MST) and the precentage of increased life span (ILS %) were measured.
Indications concerned the known products used in this example and particularly their antitumoral properties, their secondary effects and their use in man may be found in "La Chimiotherapie des Cancers", by G. MATHE and M. KENIS Expansion Scientifique Francaise, 3rd edition, Paris 1975.

Series [2] concerns leukemic cells. In words: Test 20: combination of compound 21 with other drugs (Table XV). The note with it: 10^5 cells, BD 40 20 mg/kg day +4, Endoxan 100 mg/kg day +3.
Experimental: A priming dose of endoxan (100 mg/kg) was given 3 days after 10^5 leukemic cells (20 mice).
Series [3] relates to tumoral strain derived from the murine leukemia due to the C. FRIEND virus. Put plainly: Test 7: antitumoral activity in vitro on Friend leukemia tumoral strain. The class given is cell-based. As to conditions: HUM = 1. On the procedure:
Test 7: Study of the antitumoral activity in vitro
This activity was measured on a tumoral strain derived from the murine leukemia due to the C. FRIEND virus.
The tumoral cells multiply in suspension in a "RPMI 1640" medium (Catalogue of GIBCO Bio-cult. Ltd. Washington Road, Sandyford Industrial Estate, PAISLEY PA 3 4EP, Renfrewshire, Scotland) supplemented with 20% of embryonary calf serum, penicillin and streptomycine. The duplication time of these cells is 11 hours. The growth fraction is equal to 1 or very close to 1 (all the cells are in the cycle). The cultures are sub-culturedat time t=0 at the concentration of 2.10^5 cells per ml in Falcon dishes containing 4 ml of medium. After twenty four hours, the product to be tested was added, i.e. at a moment when the cultures are in exponential phase of growth. Twenty four hours after the addition of the product, the cells are counted and the percentage of living cells determined by an exclusion test using "trypan" blue.

The test system of series [4] is L 1210 leukemia. In words: Test 11: L 1210 leukemic mice, examples 7 and 8 (Table VIII). The class given is in vivo, mouse. Also noted: MTS: unit not given beside the values. As to conditions: J+1. On the procedure: This test was carried out with 10^3, 10^4 and 10^5 leukemic cells on day J. This test was also carried out with the compound of example 7, i.e. 1-[(γ-diethylaminopropyl)amino]-5-methyl-dipyrido [4,3-b][3,4-f] indole (compound 21).

In series [5] the test system is Lewis carcinoma (3LL). In words: Test 13: Lewis carcinoma, antimetastasic effect. The format is in vivo, BDF1 mice. How it is done: "carcinome pulmonaire de Lewis" (3LL), K. SUGIURA and C. C. STOCK," Cancer Res. 1955 15 38-51.
In this test, cells (10^6 cells) removed from a tumour-carrying mouse were injected into mice(BDF1) by the IM route. The mice developed, 10 to 15 days after the inoculation, a tumour at the spot where the injection was made. On the other hand, these cells made metastasis in the lung, forming colonies on the pulmonary surface. The antitumoral and antimetastasic effect of a product may therefore be judged on mice thus treated.
Investigation of the antimetastasic effect of the compounds of examples 7 and 8 of the invention
10^6 cells taken from a tumour-carrying mouse were injected by the IM route (left-band paw) into groups of 10 mice and the compounds to be tested were inoculated by the IP route on day J+5 by single or fractioned injection. The mean survival time (MST) and the increased life span (ILS %) were determined.

Series [6] deals with L1210 leukemia. Put plainly: Test 16: structure-activity of R'1 substitution, L1210 (Table XII). The class given is in vivo, mouse (C57B16xDBA/2)F1. The note with it: for 60 days surv. / ILS % / Range of death: day +1. On the procedure:
Test 16: Relationship between structure and activity of various dipyrido indoles differing by the R'1 substitution.
L1210 leukemia has been maintained by weekly passages on (C57B16xDBA/2)F1 mice. On day 0, mice were inoculated by I.P. route with various numbers of L1210 ascitic tumor cells in volumes of 0.1 ml. Subsequently as indicated, drugs were administrated in Ca^++ and Mg^++ free PBS solutions (Gibco) or in Mac Coy's medium (Gibso or Microbiological Associates). […]

The test system of series [7] is mice. In words: Test 21: toxicity after intraperitoneal injection. The note with it: for time of deaths after drug administration: IP; for minimal quantity resulting in 100% deaths: ip, 43200 min. On the procedure: All drugs were dissolved in aqueous solutions adjusted at pH 5 with acetic acid and inoculated to the mice under a volume of 0.1 ml I.P. after dilution in Mac Coy's medium.
The toxicity of the drugs after intraperitoneal injection was estimated from the mortality rate up to the 30th day.

Series [8] has as its system L1210 leukemia. Put plainly: Test 17: length of substituting chain, L1210 (Table XIII). The format is in vivo, mouse. On the procedure: Test 17: Relationship between the length of the substituting chain and the activity.
However compound 21 is less toxic (50 mg/kg for compound 21 and 25 mg/kg for compound 23), it has a higher ILS% than compound 23 and 1 mouse survived up to 60 days.

Where [9] appears, read: Table V, 10^4 cells, doses mg/mouse: example 7 0.2, Thiotepa 0.1, Mitomycine 0.016, BCNU 0.1, Methotrexate 0.250.
Setting [10] is: Table V, 10^4 cells, mg/mouse: example 7 0.2, Thiotepa 0.1, Mitomycine 0.016, BCNU 0.1, Methotrexate 0.250, Endoxan 4.
[11] abbreviates: Table VI, 10^5 cells, mg/mouse: Thiotepa 0.1, Mitomycine C 0.016, BCNU 0.1, Methotrexate 0.250, example 7 0.2, Endoxan 4.
The mark [12] stands for this setting: Table VII, 10^5 cells, example 7 0.2 mg/mouse, ON COVIN 0.5 μg/mouse.

`O=NN(CCCl)C(=O)NCCCl` [BCNU]: in series [1] (setting [9]), the ILS % came to 0.9% and the “MTS (mean survival time)” value was found to be 11.1. Besides, in series [1] (setting [10]), the Range of death was in the range of 10 to 12 days. Also, in series [1] (setting [11]), the ILS % is listed as 0%, the “MTS (mean survival time)” value is reported as 8.8 and the Range of death is 8-9.
`O=P1(N(CCCl)CCCl)NCCCO1` (stereo not shown) [Endoxan]: the “mice alive on 30th day (of 10)” value in series [1] (Table V, 10^4 cells, Endoxan 4 mg/mouse) amounted to 3. Besides, the Range of death is 13 days in series [1] (setting [10]), 15-21 in series [1] (setting [11]) and 11-17 in series [2] (BCNU 2 mg/kg immediately after endoxan). The ILS % in series [1] (setting [11]) came to 105.30%; in series [2] (BCNU 2 mg/kg), 16.9%. The “MTS (mean survival time)” value in series [1] (setting [11]) amounted to 18.6. Also, the MST in series [2] (BCNU 2 mg/kg, control 11.2) was 13.1.
For the molecule `Cc1c2cc[nH]c(=O)c2cc2c1[nH]c1ccncc12` [Example 5, 1,2-dihydro-1-oxo 5-methyl-dipyrido-[4,3-b][3,4-f] indole], the “Activity (ratio of the LD50 of HUM to the LD50 of the product tested)” value in series [3] was determined as 0.15.
Take `Cc1c2ccnc(NCCCN(C)C)c2cc2c1[nH]c1ccncc12` [Example 8, 1-(γ-dimethylaminopropyl)amino-5-methyl-dipyrido-[4,3-b][3,4-f] indole]: the ILS % in series [4] (10^3 cells, 0.05 mg/mouse) turned out to be 34.9%; in series [4] (10^3 cells, 0.1 mg/mouse), 50.5%; in series [4] (10^4 cells, 0.05 mg/mouse) it was 34.9%; in series [4] (10^4 cells, 0.1 mg/mouse) it was 25.7%; in series [4] (10^5 cells, 0.05 mg/mouse), 28.1%; in series [4] (10^5 cells, 0.1 mg/mouse), 52.5%. Moreover, the ILS % was 9.8% in series [5] (J+5, 5 mg/kg); 34.9% in series [6] (10^4 cells, 2.5 mg/kg); 52.5% in series [6] (10^5 cells, 5 mg/kg). In addition, the “Number of surviving mice” value in series [4] (10^3 cells, 0.05 mg/mouse) was 1; in series [4] (10^3 cells, 0.1 mg/mouse), 3; in series [4] (10^4 cells, 0.05 mg/mouse) it was 1; in series [4] (10^4 cells, 0.1 mg/mouse), 3. In addition, the MTS in series [4] (10^3 cells, 0.1 mg/mouse) was 16.4; in series [4] (10^4 cells, 0.1 mg/mouse), 13.7; in series [4] (10^5 cells, 0.05 mg/mouse) it was 11.6; in series [4] (10^5 cells, 0.1 mg/mouse), 13.8. Moreover, in series [5] (IP from J+5), the “protective action concerning metastasic pulmonary invasion of the lung” value is “give a protective action”. Further, the MST in series [5] (J+5, 5 mg/kg, controls 25) is reported as 27.44. The 60 days surv. stood at 1 in series [6] (10^4 cells, 2.5 mg/kg) and 0 in series [6] (10^5 cells, 5 mg/kg). For the same molecule, the Range of death in series [6] (10^4 cells, 2.5 mg/kg) is reported as 10-19; in series [6] (10^5 cells, 5 mg/kg), 11-16. Besides, the “antitumoral activity compared with Ellipticinium acetate (HUM)” value in series [6] (Table XII summary) was “compete favorably with Ellipticinium acetate (HUM)”. Besides, the “time of deaths after drug administration” value in series [7] lay within 3 to 5 days. Besides, the “minimal quantity resulting in 100% deaths” value in series [7] (mouse, in vivo) amounted to 50 mg/kg.
With `Cc1c2ccnc(NCCN(C)C)c2cc2c1[nH]c1ccncc12` [Example 9, 1-(β-dimethylaminoethyl)amino-5-methyl-dipyrido-[4,3-b][3,4-f] indole], the “activity against L1210 leukemia (in words)” value in series [8] (Table XIII summary) is “active against L1210 leukemia”. Also, in series [8] (day +1), the ILS % is 65.2% and the “Survivors up to 60 days” value was 0. Further, in series [8] (day +1, control MST 8.8), the MST came to 14.6 and the Range of death is 11-18. Also, the “time of deaths after drug administration” value in series [7] lay within 4 to 6 days. In series [7] (mouse, in vivo), the “toxicity (toxic dose)” value is on record as 25 mg/kg and the “minimal quantity resulting in 100% deaths” value was 25 mg/kg.
Consider `CCN(CC)CCCC(C)Nc1nccc2c(C)c3[nH]c4ccncc4c3cc12` (stereo not drawn) [Example 10, 1-[(α-methyl-σ-diethylamino-butyl)-amino]-5-methyl-dipyrido-[4,3-b][3,4-f] indole], for which, in series [8] (day +4), the ILS % turned out to be 56.25% and the “Survivors up to 60 days” value turned out to be 0. Further, in series [8] (day +4, control MST 11.2), the MST came out at 17.5 and the Range of death is on record as 12-20. Moreover, in series [7], the “time of deaths after drug administration” value was 4 to 6 days. For the same molecule, in series [7] (mouse, in vivo), the “minimal quantity resulting in 100% deaths” value was 50 mg/kg.
As for `CN(Cc1cnc2nc(N)nc(N)c2n1)c1ccc(C(=O)N[C@@H](CCC(=O)O)C(=O)O)cc1` [Methotrexate], in series [1] (setting [9]), the ILS % is recorded as 44.62% and the “MTS (mean survival time)” value was 15.9. In series [1] (setting [10]), this molecule had a Range of death of 15 to 17 days. Moreover, in series [1] (setting [11]), the ILS % came to 39.35%, the “MTS (mean survival time)” value is given as 12.62 and the Range of death is listed as 12-14.
In the case of `CO[C@@]12[C@H](COC(N)=O)C3=C(C(=O)C(C)=C(N)C3=O)N1C[C@@H]1N[C@@H]12` [Mitomycine C], the values for the ILS % in series [1] (setting [9]) and in series [1] (setting [11]) were 4.95% and 0%, respectively. For the same molecule, the figures for the “MTS (mean survival time)” value in series [1] (setting [9]) and in series [1] (setting [11]) were 11.54 and 9.06, respectively. Moreover, the Range of death in series [1] (setting [10]) was 10 to 15 days; in series [1] (setting [11]), 9-10.
For `CC[C@]1(O)C[C@H]2CN(CCc3c([nH]c4ccccc34)[C@@](C(=O)OC)(c3cc4c(cc3OC)N(C=O)[C@H]3[C@@](O)(C(=O)OC)[C@H](OC(C)=O)[C@]5(CC)C=CCN6CC[C@]43[C@@H]65)C2)C1` [ON COVIN], in series [1] (setting [12]), the ILS % is given as 3.85%, the “MTS (mean survival time)” value was 10.8 and the Range of death is on record as 10-13.
As to `S=P(N1CC1)(N1CC1)N1CC1` [Thiotepa], in series [1] (setting [9]), the ILS % was 0% and the “MTS (mean survival time)” value came out at 11. The Range of death in series [1] (setting [10]) lay in the range of 10 to 11 days. Further, in series [1] (setting [11]), the ILS % came out at 1.54%, the “MTS (mean survival time)” value was 9.2 and the Range of death is 9-10.
